From US20260053798A1, “COMBINATION THERAPY FOR A RAS RELATED DISEASE OR DISORDER” (Revolution Medicines, Inc., priority 2023, published 2026)

Columns and labels:
PDAC KRAS^AMP models = experiment: RMC-6236 plus chemotherapy in PDAC KRAS^AMP models; format: in vivo; settings: FIG. 4
PI3K activity = PI3K activity in KRAS wild-type and KRAS^G12X mutant lines; format: cell-based; settings: for PI3K activity: FIG. 5 left
PIP3 levels = PIP3 levels in KRAS-mutant PDAC lines; format: cell-based; settings: KRAS^G12D-mutant PDAC lines; FIG. 5 right
pERK (MAPK signaling) = pERK (MAPK signaling) levels in KRAS mutant cell lines; format: cell-based; settings: FIG. 6

SMILES | activity and durability in combination (PDAC KRAS^AMP models; combined with FOLFIRINOX) | activity and durability in combination (PDAC KRAS^AMP models; combined with GEM+Abraxane) | monotherapy activity versus chemotherapy (PDAC KRAS^AMP models; monotherapy, EGFR-mutant PDAC (so in the source)) | PI3K activity (PI3K activity; KRAS^G12C) | PI3K activity (PI3K activity; KRAS^G12D) | PI3K activity (PI3K activity; KRAS^G12R line) | PI3K and MAPK activity (summary statement) (PI3K activity; KRAS^G12R lines) | PI3K activity (PI3K activity; KRAS^G12V) | PI3K activity (PI3K activity; KRAS^WT) | PI3K and MAPK activity (summary statement) (PI3K activity; isogenic and mutant KRAS^G12D lines) | PIP3 levels (PIP3 levels) | levels of pERK (MAPK signaling) (pERK (MAPK signaling); KRAS^G12D mutant cell lines) | levels of pERK (MAPK signaling) (pERK (MAPK signaling); KRAS^G12R mutant cell lines)
CCn1c(-c2cc(N3CCN(C)CC3)cnc2[C@H](C)OC)c2c3cc(ccc31)-c1csc(n1)C[C@H](NC(=O)[C@H]1C[C@@H]1C)C(=O)N1CCC[C@H](N1)C(=O)OCC(C)(C)C2 [RMC-6236] | combination benefit resulting in increased activity and durability | combination benefit resulting in increased activity and durability | comparable activity against EGFR-mutant PDAC as chemotherapy |  |  |  |  |  |  |  |  |  | 
CCn1c(-c2cc(N3CCN(C4CC4)CC3)cnc2[C@H](C)OC)c2c3cc(ccc31)-c1csc(n1)C[C@H](NC(=O)C1[C@H]3COC[C@@H]13)C(=O)N1CCC[C@H](N1)C(=O)OCC(C)(C)C2 (stereo partly shown) [RMC-7977] |  |  |  | moderate inhibitory effect | completely suppressed | no effect | not | moderate inhibitory effect | completely suppressed | suppresses both PI3K and MAPK activity | suppresses | decreased | decreased
